# Laboratory results from patent US9765074B2, “Inhibitors of the renal outer medullary potassium channel” (Merck Sharp & Dohme Corp., priority 2013, dated 2017).
# Target: T1, hROMK (hKir1.1) (Homo sapiens, UniProt P48048)
# T1 construct: expressed in transfected cells
# T1 sequence (P48048 1-391): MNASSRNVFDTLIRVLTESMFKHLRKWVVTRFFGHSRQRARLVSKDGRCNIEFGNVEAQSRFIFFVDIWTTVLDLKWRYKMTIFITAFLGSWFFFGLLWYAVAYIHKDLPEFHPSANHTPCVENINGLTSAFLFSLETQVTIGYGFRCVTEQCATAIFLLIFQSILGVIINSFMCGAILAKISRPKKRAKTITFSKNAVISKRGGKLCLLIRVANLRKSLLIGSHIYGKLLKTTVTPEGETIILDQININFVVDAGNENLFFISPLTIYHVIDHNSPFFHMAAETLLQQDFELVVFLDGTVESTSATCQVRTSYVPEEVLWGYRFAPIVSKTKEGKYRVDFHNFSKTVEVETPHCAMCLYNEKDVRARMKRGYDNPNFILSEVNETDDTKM
# Assay: Thallium Flux Assay (ROMK channel functional thallium flux, FLIPR-Tetra)
# Format: cell-based
# Settings: HEK293 cells stably expressing hROMK (hKir1.1); 30 min compound incubation
# Procedure, shortened: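 Thallium flux read by FluxOR fluorescence ([…]) for ~10 min after adding 3 mM Tl+/0.3 mM K+ final. Stable HEK-hKir1.1 cells were dye-loaded 90 min, exposed to compound 30 min at room temperature in ouabain/probenecid buffer; IC50 relative to a 3 μM control inhibitor.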
row,Structure (SMILES),IC50 [nM]
1,"CC1=C(N2CCC3(CCN(C[C@H](O)c4cc(C)c(-n5cnnn5)nn4)CC3)C2=O)COC1=O [Example 128, 8-{(2S)-2-hydroxy-2-[5-methyl-6-(1H-tetrazol-1-yl)pyridazin-3-yl]ethyl}-2-(4-methyl-5-oxo-2,5-dihydrofuran-3-yl)-1-oxo-2-aza-8-azoniaspiro[4.5]decane]",80
2,"CC1=C(N2CCC3(CCN(C[C@H](O)c4ccnc(-n5cnnn5)c4)CC3)C2=O)COC1=O [Example 129, 8-{(2R)-2-hydroxy-2-[2-(1H-tetrazol-1-yl)pyridin-4-yl]ethyl}-2-(4-methyl-5-oxo-2,5-dihydrofuran-3-yl)-1-oxo-2-aza-8-azoniaspiro[4.5]decane]",140
3,"CC1=C(N2CCC3(CCN(C[C@@H](O)c4ccnc(-n5cnnn5)c4)CC3)C2=O)COC1=O [Example 130, 8-{(2S)-2-hydroxy-2-[2-(1H-tetrazol-1-yl)pyridin-4-yl]ethyl}-2-(4-methyl-5-oxo-2,5-dihydrofuran-3-yl)-1-oxo-2-aza-8-azoniaspiro[4.5]decane]",160
4,"CC1=C(N2CCC3(CCN(C[C@H](O)c4cncc(-n5cnnn5)c4)CC3)C2=O)COC1=O [Example 131, 8-{(2R)-2-hydroxy-2-[5-(1H-tetrazol-1-yl)pyridin-3-yl]ethyl}-2-(4-methyl-5-oxo-2,5-dihydrofuran-3-yl)-1-oxo-2-aza-8-azoniaspiro[4.5]decane]",680
5,"CC1=C(N2CCC3(CCN(C[C@@H](O)c4cncc(-n5cnnn5)c4)CC3)C2=O)COC1=O [Example 132, 8-{(2S)-2-hydroxy-2-[5-(1H-tetrazol-1-yl)pyridin-3-yl]ethyl}-2-(4-methyl-5-oxo-2,5-dihydrofuran-3-yl)-1-oxo-2-aza-8-azoniaspiro[4.5]decane]",640
6,"CC1=C(N2CCC3(CCN(C[C@@H](O)c4c(F)cc(-n5cnnn5)cc4F)CC3)C2=O)COC1=O [Example 143, 8-{(2S)-2-[2,6-difluoro-4-(1H-tetrazol-1-yl)phenyl]-2-hydroxyethyl}-2-(4-methyl-5-oxo-2,5-dihydrofuran-3-yl)-1-oxo-2-aza-8-azoniaspiro[4.5]decane]",190
7,"CC1=C(N2C=CC3(CCN(C[C@H](O)c4ccc(-n5cnnn5)nn4)CC3)C2=O)COC1=O [Example 146, 8-{(2S)-2-hydroxy-2-[6-(1H-tetrazol-1-yl)pyridazin-3-yl]ethyl}-2-(4-methyl-5-oxo-2,5-dihydrofuran-3-yl)-1-oxo-2-aza-8-azoniaspiro[4.5]dec-3-ene]",50
8,"CC1=C(N2CCC3(CCN(C[C@@H](O)c4ncc(-n5cnnn5)cc4F)CC3)C2=O)COC1=O [Example 148, 8-{(2R)-2-[3-fluoro-5-(1H-tetrazol-1-yl)pyridin-2-yl]-2-hydroxyethyl}-2-(4-methyl-5-oxo-2,5-dihydrofuran-3-yl)-2,8-diazaspiro[4.5]decan-1-one]",100
9,"COc1nc(-n2cnnn2)ccc1[C@@H](O)CN1CCC2(CC1)CCN(C1=C(C)C(=O)OC1)C2=O [Example 149, 8-{(2R)-2-hydroxy-2-[2-methoxy-6-(1H-tetrazol-1-yl)pyridin-3-yl]ethyl}-2-(4-methyl-5-oxo-2,5-dihydrofuran-3-yl)-2,8-diazaspiro[4.5]decan-1-one]",20
10,"COc1nc(-n2cnnn2)ccc1[C@H](O)CN1CCC2(CC1)CCN(C1=C(C)C(=O)OC1)C2=O [Example 150, 8-{(2S)-2-hydroxy-2-[2-methoxy-6-(1H-tetrazol-1-yl)pyridin-3-yl]ethyl}-2-(4-methyl-5-oxo-2,5-dihydrofuran-3-yl)-2,8-diazaspiro[4.5]decan-1-one]",20
11,"O=C1C=C(N2C=CC3(CCN(C[C@H](O)c4ccc(-n5cnnn5)nc4)CC3)C2=O)CO1 [Example 151, 8-{(2R)-2-hydroxy-2-[6-(1H-tetrazol-1-yl)pyridin-3-yl]ethyl}-1-oxo-2-(5-oxo-2,5-dihydrofuran-3-yl)-2-aza-8-azoniaspiro[4.5]dec-3-ene]",30
12,"O=C1C=C(N2C=CC3(CCN(C[C@H](O)c4cnc(-n5cnnn5)cn4)CC3)C2=O)CO1 [Example 152, 8-{(2S)-2-hydroxy-2-[5-(1H-tetrazol-1-yl)pyrazin-2-yl]ethyl}-1-oxo-2-(5-oxo-2,5-dihydrofuran-3-yl)-2-aza-8-azoniaspiro[4.5]dec-3-ene]",270
13,"CC1=C(N2C=CC3(CCN(C[C@@H](O)c4nnc(-n5cnnn5)cc4C)CC3)C2=O)COC1=O [Example 153, 8-{(2R)-2-hydroxy-2-[4-methyl-6-(1H-tetrazol-1-yl)pyridazin-3-yl]ethyl}-2-(4-methyl-5-oxo-2,5-dihydrofuran-3-yl)-1-oxo-2-aza-8-azoniaspiro[4.5]dec-3-ene]",40
14,"CC1=C(N2C=CC3(CCN(C[C@H](O)c4nnc(-n5cnnn5)cc4C)CC3)C2=O)COC1=O [Example 154, 8-{(2S)-2-hydroxy-2-[4-methyl-6-(1H-tetrazol-1-yl)pyridazin-3-yl]ethyl}-2-(4-methyl-5-oxo-2,5-dihydrofuran-3-yl)-1-oxo-2-aza-8-azoniaspiro[4.5]dec-3-ene]",30
15,"O=C1C=C(N2C=CC3(CCN(C[C@@H](O)c4ccc(-n5cnnn5)nc4)CC3)C2=O)CO1 [Example 155, 8-{(2S)-2-hydroxy-2-[6-(1H-tetrazol-1-yl)pyridin-3-yl]ethyl}-1-oxo-2-(5-oxo-2,5-dihydrofuran-3-yl)-2-aza-8-azoniaspiro[4.5]dec-3-ene]",60
16,"CC1=C(N2C=CC3(CCN(C[C@@H](O)c4ccc(-n5cnnn5)nc4)CC3)C2=O)COC1=O [Example 156, 8-{(2S)-2-hydroxy-2-[6-(1H-tetrazol-1-yl)pyridin-3-yl]ethyl}-2-(4-methyl-5-oxo-2,5-dihydrofuran-3-yl)-1-oxo-2-aza-8-azoniaspiro[4.5]dec-3-ene]",20
17,"CC1(O)CC2(CCN(C[C@H](O)c3ccc(-n4cnnn4)nc3)CC2)C(=O)N1C1=CC(=O)OC1 (stereo partly drawn) [Example 157, 3-hydroxy-8-{(2R)-2-hydroxy-2-[6-(1H-tetrazol-1-yl)pyridin-3-yl]ethyl}-3-methyl-1-oxo-2-(5-oxo-2,5-dihydrofuran-3-yl)-2-aza-8-azoniaspiro[4.5]decane]",70
18,"CC1(O)CC2(CCN(C[C@H](O)c3ccc(-n4cnnn4)nn3)CC2)C(=O)N1C1=CC(=O)OC1 (stereo partly drawn) [Example 158, 3-hydroxy-8-{(2S)-2-hydroxy-2-[6-(1H-tetrazol-1-yl)pyridazin-3-yl]ethyl}-3-methyl-1-oxo-2-(5-oxo-2,5-dihydrofuran-3-yl)-2-aza-8-azoniaspiro[4.5]decane]",560
19,"CC1=C(N2C=CC3(CCN(C[C@H](O)c4cnc(-n5cnnn5)cn4)CC3)C2=O)COC1=O [Example 163, 8-{(2S)-2-hydroxy-2-[5-(1H-tetrazol-1-yl)pyrazin-2-yl]ethyl}-2-(4-methyl-5-oxo-2,5-dihydrofuran-3-yl)-1-oxo-2-aza-8-azoniaspiro[4.5]dec-3-ene]",100
20,"CC1(C)CC2(CCN(C[C@H](O)c3cnc(-n4cnnn4)cn3)CC2)C(=O)N1C1=CC(=O)OC1 [Example 164, 8-{(2S)-2-hydroxy-2-[5-(1H-tetrazol-1-yl)pyrazin-2-yl]ethyl}-3,3-dimethyl-1-oxo-2-(5-oxo-2,5-dihydrofuran-3-yl)-2-aza-8-azoniaspiro[4.5]decane]",40
21,"CC1=CN(C2=C(C)C(=O)OC2)C(=O)C12CCN(C[C@H](O)c1ccc(-n3cnnn3)nn1)CC2 [Example 166, 8-{(2S)-2-hydroxy-2-[6-(1H-tetrazol-1-yl)pyridazin-3-yl]ethyl}-4-methyl-2-(4-methyl-5-oxo-2,5-dihydrofuran-3-yl)-1-oxo-2-aza-8-azoniaspiro[4.5]dec-3-ene]",100
22,"O=C1C=C(N2C(=O)C3(CCN(C[C@H](O)c4cnc(-n5cnnn5)cn4)CC3)CC23CC3)CO1 [Example 167, 8-{(2S)-2-hydroxy-2-[5-(1H-tetrazol-1-yl)pyrazin-2-yl]ethyl}-12-(5-oxo-2,5-dihydrofuran-3-yl)-8,12-diazadispiro[2.1.5.2]dodecan-11-one]",10
23,"CC1=CC2(CCN(C[C@H](O)c3ccc(-n4cnnn4)nc3)CC2)C(=O)N1C1=CC(=O)OC1 [Example 174, 8-{(2R)-2-hydroxy-2-[6-(1H-tetrazol-1-yl)pyridin-3-yl]ethyl}-3-methyl-2-(5-oxo-2,5-dihydrofuran-3-yl)-2,8-diazaspiro[4.5]dec-3-en-1-one]",20
24,"CC1=CN(C2=C(C)C(=O)OC2)C(=O)C12CCN(C[C@H](O)c1ccc(-n3cnnn3)nc1)CC2 [Example 175, 8-{(2R)-2-hydroxy-2-[6-(1H-tetrazol-1-yl)pyridin-3-yl]ethyl}-4-methyl-2-(4-methyl-5-oxo-2,5-dihydrofuran-3-yl)-1-oxo-2-aza-8-azoniaspiro[4.5]dec-3-ene]",40
25,"CC1=C(N2CCC3(CC4COCC(C3)N4C[C@H](O)c3ccc(-n4cnnn4)nc3)C2=O)COC1=O (stereo partly drawn) [Example 180, 9-{(2R)-2-hydroxy-2-[6-(1H-tetrazol-1-yl)pyridin-3-yl]ethyl}-1′-(4-methyl-5-oxo-2,5-dihydrofuran-3-yl)-2′H-spiro[7-oxa-9-azabicyclo[3.3.1]nonane-3,3′-pyrrolidin]-2′-one]",40
26,"CC1=C(N2CCC3(CC4COCC(C3)N4C[C@H](O)c3cnc(-n4cnnn4)cn3)C2=O)COC1=O (stereo partly drawn) [Example 181, 9-{(2S)-2-hydroxy-2-[5-(1H-tetrazol-1-yl)pyrazin-2-yl]ethyl}-1′-(4-methyl-5-oxo-2,5-dihydrofuran-3-yl)-2′H-spiro[7-oxa-9-azabicyclo[3.3.1]nonane-3,3′-pyrrolidin]-2′-one]",150
